From patent US7638538B1, “Pharmaceutically active sulfonyl amino acid derivatives” (Laboratoires Serono S.A., priority 1999, dated 2009)

Tests used:
Format in all cases: biochemical
ERK2 = ERK2 (Homo sapiens, UniProt P28482); assay: ERK2 in vitro kinase assay (SPA, myelin basic protein substrate)
Procedure: (§1) JNK 2 and 3 in vitro assays: JNK 2 and/or 3 assays are performed 96 well MTT plates, by incubation of 0.5 μg of recombinant, pre-activated GST-JNK2 with 1 μg of recombinant, biotinylated GST-c-Jun and 2 μM ^33γ-ATP (2 nCi/μl), in the presence or absence of sulfonyl amino acid inhibitors and in a reaction volume of 150 μl containing 50 mM Tris-HCl, pH 8.0; 10 mM MgCl2; 1 mM Dithiothreitol, and 100 μM NaVO4. The incubation is carried for 120 min. at R.T and stopped up by addition of 200 μl of a solution containing 250 μg of Streptavidine-coated SPA beads (Amersham, Inc.)*, 5 mM EDTA, 0.1% Trinton X-100 and 50 μM ATP, in phosphate saline buffer. After incubation for 60 minutes at RT, beads are sedimented by centrifugation at 1500×g for 5 minutes, resuspended in 200 μl of PBS containing 5 mM EDTA, 0.1% Triton X-100 and 50 μM ATP and the radioactivity measured in a scintillation β counter, following sedimentation of the beads as described above. By substituting GST-c-Jun for biotinylated GST-1ATF2 or myelin basic protein, this assay can be used to measure inhibition of preactivated p38 and ERK MAP Kinases, respectively.

JNK3 = JNK3 (Homo sapiens, UniProt P53779); assay: JNK3 in vitro kinase assay (SPA, GST-c-Jun substrate)
Sequence of JNK3 (P53779 whole entry, species assumed): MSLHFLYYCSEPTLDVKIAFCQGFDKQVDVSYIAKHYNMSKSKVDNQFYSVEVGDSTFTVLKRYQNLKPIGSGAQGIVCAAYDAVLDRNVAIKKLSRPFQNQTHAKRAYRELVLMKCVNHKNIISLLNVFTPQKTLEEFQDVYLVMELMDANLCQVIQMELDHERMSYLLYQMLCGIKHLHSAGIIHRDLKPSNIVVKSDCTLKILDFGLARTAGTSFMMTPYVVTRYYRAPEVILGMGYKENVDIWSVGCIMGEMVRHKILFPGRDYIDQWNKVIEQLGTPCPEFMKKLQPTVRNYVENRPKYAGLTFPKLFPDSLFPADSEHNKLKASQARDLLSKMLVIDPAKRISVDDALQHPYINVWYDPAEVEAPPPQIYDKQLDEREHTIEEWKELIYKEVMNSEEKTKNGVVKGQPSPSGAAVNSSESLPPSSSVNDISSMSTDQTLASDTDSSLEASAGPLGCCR
Procedure: as §1

p38 = p38 (Homo sapiens, UniProt Q16539); assay: p38 in vitro kinase assay (SPA, GST-ATF2 substrate)
Sequence of p38 (Q16539 whole entry): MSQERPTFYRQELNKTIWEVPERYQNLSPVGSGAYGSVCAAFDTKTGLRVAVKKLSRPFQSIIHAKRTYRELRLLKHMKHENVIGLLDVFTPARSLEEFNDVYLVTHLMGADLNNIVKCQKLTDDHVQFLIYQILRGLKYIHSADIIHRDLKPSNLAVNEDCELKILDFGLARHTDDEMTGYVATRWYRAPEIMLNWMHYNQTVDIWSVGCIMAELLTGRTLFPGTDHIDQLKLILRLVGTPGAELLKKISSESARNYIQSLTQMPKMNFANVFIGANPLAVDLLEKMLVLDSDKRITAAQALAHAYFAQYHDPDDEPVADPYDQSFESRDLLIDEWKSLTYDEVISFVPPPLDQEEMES
Procedure: as §1

GST-JNK2 = GST-JNK2 (Homo sapiens, UniProt P45984); assay: JNK2 in vitro kinase assay (SPA, GST-c-Jun substrate)
Sequence of GST-JNK2 (P45984 whole entry): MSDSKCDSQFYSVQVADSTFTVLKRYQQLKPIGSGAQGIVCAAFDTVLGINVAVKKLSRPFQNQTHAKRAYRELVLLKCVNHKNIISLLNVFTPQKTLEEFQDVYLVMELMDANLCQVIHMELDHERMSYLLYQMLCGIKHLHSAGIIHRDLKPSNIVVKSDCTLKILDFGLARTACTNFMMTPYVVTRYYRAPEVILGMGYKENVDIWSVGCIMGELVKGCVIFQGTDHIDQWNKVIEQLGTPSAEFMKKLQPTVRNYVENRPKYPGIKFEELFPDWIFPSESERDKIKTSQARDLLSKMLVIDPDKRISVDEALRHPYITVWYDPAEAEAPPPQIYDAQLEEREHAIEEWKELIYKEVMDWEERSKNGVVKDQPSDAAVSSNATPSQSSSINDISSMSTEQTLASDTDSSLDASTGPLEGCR
Procedure: as §1

Sequence of ERK2 (P28482 whole entry, species assumed): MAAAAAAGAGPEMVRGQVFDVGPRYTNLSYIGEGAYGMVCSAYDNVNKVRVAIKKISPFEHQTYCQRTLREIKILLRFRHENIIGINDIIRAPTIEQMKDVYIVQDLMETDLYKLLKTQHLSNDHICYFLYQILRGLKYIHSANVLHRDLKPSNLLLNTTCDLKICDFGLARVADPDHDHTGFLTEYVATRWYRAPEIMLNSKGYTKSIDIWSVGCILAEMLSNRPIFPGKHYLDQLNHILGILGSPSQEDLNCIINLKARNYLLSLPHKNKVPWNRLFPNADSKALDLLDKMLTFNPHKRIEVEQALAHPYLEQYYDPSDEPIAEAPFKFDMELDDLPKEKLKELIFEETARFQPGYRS

IC50 (ERK2) [µM] | IC50 (JNK3) [µM] | IC50 (p38) [µM] | IC50 (GST-JNK2) [µM] | Structure (SMILES)
> 30 | 0.64 | > 30 | 1.3 | O=C(CNS(=O)(=O)c1ccc(CNC(=O)c2ccc(Cl)cc2)s1)Nc1cccc(S(=O)(=O)C(F)(F)F)c1 [Example 6, 4-chloro-N-[(5-{[(2-oxo-2-{3-[(trifluoromethyl)sulfonyl]anilino)ethyl)amino]sulfonyl}thien-2-yl)methyl]benzamide]
> 30 | 1.2 | > 30 | 2.7 | O=C(CNS(=O)(=O)c1ccc(CNC(=O)c2ccc(Cl)cc2)s1)NCCNc1ncc(C(F)(F)F)cc1Cl [Example 1, 4chloro-N-({5-[({2-[(2-{[3-chloro-5-(trifluoromethyl)pyridin-2-yl]amino}ethyl)amino]-2-oxoethyl}amino)sulfonyl]thien-2-yl}methyl)benzamide]
